System: SEM cells
Assay: cell viability relative to DMSO control; higher = less cytotoxic
Details: 48 h
Outline: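 Library compounds in DMSO were pin-dosed into 1536-well plates (5 μl) holding NOMO1 or SEM (500 cells/well) or P12-Ichikawa (1000 cells/well) leukemia cells, across an 11-point threefold series of 47 μM to 0.79 nM. Each cell line had been adapted for at least four passages in each medium. CellTiter-Glo One luminescence was read after 48 h at 37°C. Viability is the per-plate percentage relative to DMSO wells, with cell-free wells as background.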

[1] = HPLM + 10% dialyzed FBS, 0.000781 µM
[2] = HPLM + 10% dialyzed FBS, 0.00234 µM
[3] = HPLM + 10% dialyzed FBS, 0.00702 µM
[4] = HPLM + 10% dialyzed FBS, 0.0211 µM
[5] = HPLM + 10% dialyzed FBS, 0.0632 µM
[6] = HPLM + 10% dialyzed FBS, 0.19 µM
[7] = HPLM + 10% dialyzed FBS, 0.569 µM
[8] = HPLM + 10% dialyzed FBS, 1.71 µM
[9] = HPLM + 10% dialyzed FBS, 5.12 µM
[10] = HPLM + 10% dialyzed FBS, 15.4 µM
[11] = HPLM + 10% dialyzed FBS, 46.1 µM
[12] = RPMI 5 mM glucose + 10% FBS, 0.000781 µM
[13] = RPMI 5 mM glucose + 10% FBS, 0.00234 µM
[14] = RPMI 5 mM glucose + 10% FBS, 0.00702 µM
[15] = RPMI 5 mM glucose + 10% FBS, 0.0211 µM
[16] = RPMI 5 mM glucose + 10% FBS, 0.0632 µM
[17] = RPMI 5 mM glucose + 10% FBS, 0.19 µM
[18] = RPMI 5 mM glucose + 10% FBS, 0.569 µM
[19] = RPMI 5 mM glucose + 10% FBS, 1.71 µM
[20] = RPMI 5 mM glucose + 10% FBS, 5.12 µM
[21] = RPMI 5 mM glucose + 10% FBS, 15.4 µM
[22] = RPMI 5 mM glucose + 10% FBS, 46.1 µM
[23] = RPMI 5 mM glucose + 10% dialyzed FBS, 0.000781 µM
[24] = RPMI 5 mM glucose + 10% dialyzed FBS, 0.00234 µM
[25] = RPMI 5 mM glucose + 10% dialyzed FBS, 0.00702 µM
[26] = RPMI 5 mM glucose + 10% dialyzed FBS, 0.0211 µM
[27] = RPMI 5 mM glucose + 10% dialyzed FBS, 0.0632 µM
[28] = RPMI 5 mM glucose + 10% dialyzed FBS, 0.19 µM
[29] = RPMI 5 mM glucose + 10% dialyzed FBS, 0.569 µM
[30] = RPMI 5 mM glucose + 10% dialyzed FBS, 1.71 µM
[31] = RPMI 5 mM glucose + 10% dialyzed FBS, 5.12 µM
[32] = RPMI 5 mM glucose + 10% dialyzed FBS, 15.4 µM
[33] = RPMI 5 mM glucose + 10% dialyzed FBS, 46.1 µM

SMILES	cell viability [1] [%]	cell viability [2] [%]	cell viability [3] [%]	cell viability [4] [%]	cell viability [5] [%]	cell viability [6] [%]	cell viability [7] [%]	cell viability [8] [%]	cell viability [9] [%]	cell viability [10] [%]	cell viability [11] [%]	cell viability [12] [%]	cell viability [13] [%]	cell viability [14] [%]	cell viability [15] [%]	cell viability [16] [%]	cell viability [17] [%]	cell viability [18] [%]	cell viability [19] [%]	cell viability [20] [%]	cell viability [21] [%]	cell viability [22] [%]	cell viability [23] [%]	cell viability [24] [%]	cell viability [25] [%]	cell viability [26] [%]	cell viability [27] [%]	cell viability [28] [%]	cell viability [29] [%]	cell viability [30] [%]	cell viability [31] [%]	cell viability [32] [%]	cell viability [33] [%]
O=C(CCCCCCC(=O)Nc1cccnc1)NO	78.3	106	96.7	97.2	114	104	108	88.5	76.8	17.6	6.38	101	105	102	106	101	115	97.5	77.2	81.7	11.9	5.78	87.8	93.6	89.2	101	95.5	99	105	81.9	64	13.5	6.39
O=[N+]([O-])c1ncc[nH]1	86	88.2	99.9	93.1	74.6	88	76.1	84	89.3	79.9	55.1	98.2	91.2	94.5	113	94.9	93.5	87.2	81.3	93.9	100	74.3	108	97.4	101	101	90.4	93.7	94.8	85.8	108	106	49.8
CCOC(=O)[C@@]1(CCCCCCOc2ccc(Cl)cc2)CO1	95.4	103	111	112	113	95.9	115	94.3	95.2	51.3	23.9	114	119	126	120	125	116	115	98.5	102	32.3	12.6	102	107	107	106	103	107	114	102	95	50.4	17
C[N]1C=C(C2=CC=CC=C12)\C3=C(\C(=O)NC3=O)C4=C[N](C5CCN(CC5)CC6=NC=CC=C6)C7=C4C=CC=C7	98.6	113	102	119	114	116	125	118	112	71.6	109	95.2	108	114	119	112	104	111	93.3	102	66.4	87.5	98.6	124	109	118	118	127	119	111	101	69.2	117
C[C@H](CCC(=O)O)[C@H]1CCC2C3C[C@H](O)[C@@H]4C[C@H](O)CC[C@]4(C)C3CC[C@@]21C (stereo not given in full)	–	–	–	–	–	–	–	–	–	–	–	109	122	129	131	135	102	103	117	123	107	108	–	–	–	–	–	–	–	–	–	–	–
COc1ccc(C(CN(C)C)C2(O)CCCCC2)cc1 (stereo not given)	83.7	134	106	134	124	118	106	107	117	116	104	78.5	132	122	110	124	125	103	112	119	120	95.9	64.9	120	122	134	163	138	115	122	148	118	135
N\C1=N\C2=C(N=C[N]2COCCO)C(=O)N1	93.7	101	97.2	103	100	99.7	111	104	89.5	77.3	60.5	87	107	106	112	101	104	115	117	106	93.4	56.5	83	93.9	95.9	94.3	95.1	115	90.1	101	88.2	73.3	44.8
NC(=O)Nc1sc(-c2ccc(F)cc2)cc1C(N)=O	99.3	113	115	110	96.7	125	119	103	90.5	61.7	18.3	–	–	–	–	–	–	–	–	–	–	–	112	116	117	103	125	109	106	97.2	75.1	55.9	11
C[C@@H]1CCN(C(=O)CC#N)C[C@@H]1N(C)c1ncnc2[nH]ccc12	85	92.5	81.5	85.7	91	77.4	67.4	80	67	73.1	78.6	96.6	99.5	79.5	97.4	103	104	99.3	98.5	80	90.7	95.3	112	104	77.5	109	105	92.4	82.1	94	57.9	83.5	88.4
O=S(=O)([O-])CCS.[Na+]	96.5	104	100	96.9	113	113	122	107	100	116	107	101	102	89.6	124	107	115	109	124	112	123	122	109	104	108	108	114	137	130	135	121	137	155
CCc1cc(C(N)=S)ccn1	80.7	81.5	88	86.3	91.5	92.3	90.8	89.8	91.2	54.7	84.7	112	103	98.1	108	104	107	102	97.8	88.4	36.1	68.7	94.9	99.1	89.8	106	101	116	102	94.5	100	53.9	64.2
CCc1cc2c(cc1N1CCC(N3CCOCC3)CC1)C(C)(C)c1[nH]c3cc(C#N)ccc3c1C2=O	60.6	55	70.7	102	122	121	114	99	95.6	70.2	28.1	53.8	49.4	71.1	77.1	107	107	103	96.7	88.3	46.7	12.8	60.3	54.3	73.8	97.7	111	129	103	114	108	70.8	20.3
CN1CCN(c2c(F)cc3c(=O)c(C(=O)O)cn(CCF)c3c2F)CC1	84.2	85.3	103	118	108	105	100	109	109	105	110	96.4	96.4	108	105	110	104	116	111	125	118	101	105	92.6	123	113	111	112	117	129	111	114	118
CCOC(=O)C(C#N)C\1C2=CC(=CC=C2O\C(=C1C(=O)OCC)N)Br (stereo not given)	93.4	102	117	49.8	113	99.9	99.5	105	95.1	86.1	63.8	113	116	114	44.5	116	117	113	113	101	98	57.6	84.8	99.1	103	49.8	108	99.1	83.6	105	87.2	82.3	55.2
CCN1C[C@H](C)[N]2C(=C(O)C3=C2\C(=N/N(CC4=CC=C(F)C(=C4)Cl)C3=O)C(=O)NC)C1=O	104	103	105	107	106	102	109	50.4	98.5	100	94	115	115	117	103	110	106	105	18	100	103	98.9	101	121	125	117	125	121	122	51.6	115	112	105
CCn1c(-c2nonc2N)nc2c(C#CC(C)(C)O)ncc(OC[C@H]3CCCNC3)c21	78.7	83.1	87.2	86.4	75.2	82.7	76.9	66.2	70.3	43	10.5	104	96.6	107	94.1	75.7	99.2	96.4	64.9	77.7	60	14.8	85.8	85.2	95.8	75.7	68.6	97.1	90.7	53.9	62.8	43.6	14.1
